Reference: patent US9951467B2, “Bacteriostatically treating method” (JNC CORPORATION, priority 2009, dated 2018)

Tests used:
E. coli = test: Antibacterial test on fiber samples immersed in polycationic polypeptide aqueous solution, bactericidal activity value (L); type: cell-based, Escherichia coli
Description: (§1) Here, the bactericidal activity value (L) is defined by the following equation (for details, see the Approval Standard for Antibacterial and Deodorant Textile Products set forth by the Japan Textile Evaluation Technology Council (JTETC)). When this value (L) is ≥0, the textile product is considered to have an antibacterial effect, and it becomes eligible to be approved as a bacteriostatically treated textile product (with SEK Mark).
(§2) L (bactericidal activity value)=(Ma−Mc)
(§3) Ma: Average common logarithm value of the viable cell count or the ATP amount, which was measured for three samples immediately after the inoculation thereof onto a standard cloth.
(§4) Mc: Average common logarithm value of the viable cell count or the ATP amount, which was measured for three samples after 18 hours of culturing on an antibacterially treated cloth.
(§5) Threads, each of which was cut into 0.4 g in weight, were used as the fiber samples. Into a polycationic polypeptide aqueous solution of a prescribed concentration which was heated to a prescribed temperature (25, 50 or 75° C.), the samples were immersed for a prescribed period of time. The followings were used as the polycationic polypeptide.
(§6) Then, the fiber samples were washed by a simple method which was modified from the washing method according to JIS L-0217 103 (“Antimicrobial Agent of SENKA Corporation”; Everything about antimicrobial agents, p. 595-598, 1997, Sen-i Co., Ltd.), and the thus washed samples were dried in the air. The washing method was carried out by the following steps.
(§7) (1) Water having a temperature of 40° C. is filled into the washer water tank up to the highest line for the water level. To this water, “JAFET standard detergent (polyoxyethylene alkyl ether)” is added at a ratio of 40 mL of the detergent to 30 L of water to obtain washing solution.
(§8) (2) The fiber samples are placed into the washing solution in such a manner that the bath ratio (the weight ratio of the fibers and the washing solution at the time of washing of the fibers after the immersion) becomes 1:30, and the washing machine is operated for 25 minutes.
(§9) (3) The fiber samples are dehydrated by a dehydrator. The dehydration is carried out for 7 to 8 minutes.
(§10) (4) The washing solution is replaced with fresh water at room temperature, and rinsing and washing are performed in the filled water for 4 minutes at the same bath ratio.
(§11) (5) The fiber samples are dehydrated by a dehydrator. The dehydration is carried out for 7 to 8 minutes.
(§12) (6) Rinsing and washing are performed with running water for 2 minutes.
(§13) (7) Considering the above (1) to (6) as 5 washings, these steps are repeated twice to have the fiber samples be “washed 10 times”.
(§14) (8) The fiber samples are dehydrated by a dehydrator.
(§15) A bacterial suspension which was cultured in normal broth at 30° C. for 18 hours was mixed and diluted to prepare a diluted bacterial suspension having a concentration of 10^6 cells/mL. Placed into a vial was 0.4 g of fiber sample which was not washed or washed 10 times. Thereto inoculated was 400 μL of the diluted bacterial suspension, which was then allowed to soak into the sample, and the sample was incubated at 37° C. After 18 hours, 20 mL of physiological saline was added to the vial and the resultant was stirred using a mixer (5 seconds×5 times) to suspend the bacterial cells. The thus obtained suspension was diluted as appropriate, and the number of bacterium was counted to calculate the bactericidal activity value (L) based on the aforementioned equation. Here, the tested bacteria were E. coli and S. aureus.

S. aureus = test: as above; type: cell-based, Staphylococcus aureus
Description: as §1, §2, §3, §4, §5, §6, §7, §8, §9, §10, §11, §12, §13, §14, §15

[1] = Acryl 100% thread, immersion 25° C., 2 hours
[2] = Acryl 100% thread, immersion 25° C., 3 hours
[3] = Acryl 100% thread, immersion 25° C., 24 hours
[4] = Cotton 100% thread, immersion 50° C., 2 hours
[5] = Cotton 100% thread, immersion 50° C., 3 hours
[6] = Cotton 100% thread, immersion 50° C., 24 hours
[7] = Cotton 100% thread, immersion 75° C., 2 hours
[8] = Cotton 100% thread, immersion 75° C., 3 hours
[9] = Cotton 100% thread, immersion 75° C., 24 hours
[10] = Hemp 100% thread, immersion 25° C., 2 hours
[11] = Hemp 100% thread, immersion 25° C., 3 hours
[12] = Hemp 100% thread, immersion 25° C., 24 hours
[13] = Nylon 100% thread, immersion 25° C., 2 hours
[14] = Nylon 100% thread, immersion 25° C., 3 hours
[15] = Nylon 100% thread, immersion 25° C., 24 hours
[16] = Polyester 100% thread, immersion 25° C., 2 hours
[17] = Polyester 100% thread, immersion 25° C., 3 hours
[18] = Polyester 100% thread, immersion 25° C., 24 hours
[19] = Rayon 100% thread, immersion 25° C., 2 hours
[20] = Rayon 100% thread, immersion 25° C., 3 hours
[21] = Rayon 100% thread, immersion 25° C., 24 hours
[22] = Wool 100% thread, immersion 50° C., 2 hours
[23] = Wool 100% thread, immersion 50° C., 3 hours
[24] = Wool 100% thread, immersion 50° C., 24 hours
[25] = Wool 100% thread, immersion 75° C., 2 hours
[26] = Wool 100% thread, immersion 75° C., 3 hours
[27] = Wool 100% thread, immersion 75° C., 24 hours
[28] = cotton thread and wool, immersion 50° C., 2 hours or more (text summary of Table 1)
[29] = threads of various materials, immersion 25° C., 2 hours or more (text summary of Table 2)

ϵ-polylysine [ε-polylysine]
ε-polylysine concentration at which L ≥ 0 was attained, E. coli (E. coli; [1]): 500 ppm
ε-polylysine concentration at which L ≥ 0 was attained, E. coli (E. coli; [2]): 500 ppm
ε-polylysine concentration at which L ≥ 0 was attained, E. coli (E. coli; [3]): 250 ppm
ε-polylysine concentration at which L ≥ 0 was attained, E. coli (E. coli; [4]): 2,500 ppm
ε-polylysine concentration at which L ≥ 0 was attained, E. coli (E. coli; [5]): 2,500 ppm
ε-polylysine concentration at which L ≥ 0 was attained, E. coli (E. coli; [6]): 2,500 ppm
ε-polylysine concentration at which L ≥ 0 was attained, E. coli (E. coli; [7]): 2,500 ppm
ε-polylysine concentration at which L ≥ 0 was attained, E. coli (E. coli; [8]): 2,500 ppm
ε-polylysine concentration at which L ≥ 0 was attained, E. coli (E. coli; [9]): 2,500 ppm
ε-polylysine concentration at which L ≥ 0 was attained, E. coli (E. coli; [10]): 500 ppm
ε-polylysine concentration at which L ≥ 0 was attained, E. coli (E. coli; [11]): 500 ppm
ε-polylysine concentration at which L ≥ 0 was attained, E. coli (E. coli; [12]): 800 ppm
ε-polylysine concentration at which L ≥ 0 was attained, E. coli (E. coli; [13]): 500 ppm
ε-polylysine concentration at which L ≥ 0 was attained, E. coli (E. coli; [14]): 500 ppm
ε-polylysine concentration at which L ≥ 0 was attained, E. coli (E. coli; [15]): 250 ppm
ε-polylysine concentration at which L ≥ 0 was attained, E. coli (E. coli; [16]): 500 ppm
ε-polylysine concentration at which L ≥ 0 was attained, E. coli (E. coli; [17]): 500 ppm
ε-polylysine concentration at which L ≥ 0 was attained, E. coli (E. coli; [18]): 800 ppm
ε-polylysine concentration at which L ≥ 0 was attained, E. coli (E. coli; [19]): 500 ppm
ε-polylysine concentration at which L ≥ 0 was attained, E. coli (E. coli; [20]): 500 ppm
ε-polylysine concentration at which L ≥ 0 was attained, E. coli (E. coli; [21]): 250 ppm
ε-polylysine concentration at which L ≥ 0 was attained, E. coli (E. coli; [22]): 2,500 ppm
ε-polylysine concentration at which L ≥ 0 was attained, E. coli (E. coli; [23]): 2,500 ppm
ε-polylysine concentration at which L ≥ 0 was attained, E. coli (E. coli; [24]): 2,500 ppm
ε-polylysine concentration at which L ≥ 0 was attained, E. coli (E. coli; [25]): 2,500 ppm
ε-polylysine concentration at which L ≥ 0 was attained, E. coli (E. coli; [26]): 2,500 ppm
ε-polylysine concentration at which L ≥ 0 was attained, E. coli (E. coli; [27]): 2,500 ppm
concentration of ϵ-polylysine aqueous solution at which bacteriostatic effect against E. coli was attained (E. coli; [28]): 2,500 ppm
concentration of ϵ-polylysine aqueous solution at which bacteriostatic effect against E. coli was attained (E. coli; [29]): 500 ppm
ε-polylysine concentration at which L ≥ 0 was attained, S. aureus (S. aureus; [1]): 500 ppm
ε-polylysine concentration at which L ≥ 0 was attained, S. aureus (S. aureus; [2]): 500 ppm
ε-polylysine concentration at which L ≥ 0 was attained, S. aureus (S. aureus; [3]): 250 ppm
ε-polylysine concentration at which L ≥ 0 was attained, S. aureus (S. aureus; [4]): 500 ppm
ε-polylysine concentration at which L ≥ 0 was attained, S. aureus (S. aureus; [5]): 500 ppm
ε-polylysine concentration at which L ≥ 0 was attained, S. aureus (S. aureus; [6]): 500 ppm
ε-polylysine concentration at which L ≥ 0 was attained, S. aureus (S. aureus; [7]): 500 ppm
ε-polylysine concentration at which L ≥ 0 was attained, S. aureus (S. aureus; [8]): 500 ppm
ε-polylysine concentration at which L ≥ 0 was attained, S. aureus (S. aureus; [9]): 500 ppm
ε-polylysine concentration at which L ≥ 0 was attained, S. aureus (S. aureus; [10]): 500 ppm
ε-polylysine concentration at which L ≥ 0 was attained, S. aureus (S. aureus; [11]): 500 ppm
ε-polylysine concentration at which L ≥ 0 was attained, S. aureus (S. aureus; [12]): 250 ppm
ε-polylysine concentration at which L ≥ 0 was attained, S. aureus (S. aureus; [13]): 500 ppm
ε-polylysine concentration at which L ≥ 0 was attained, S. aureus (S. aureus; [14]): 500 ppm
ε-polylysine concentration at which L ≥ 0 was attained, S. aureus (S. aureus; [15]): 250 ppm
ε-polylysine concentration at which L ≥ 0 was attained, S. aureus (S. aureus; [16]): 500 ppm
ε-polylysine concentration at which L ≥ 0 was attained, S. aureus (S. aureus; [17]): 500 ppm
ε-polylysine concentration at which L ≥ 0 was attained, S. aureus (S. aureus; [18]): 250 ppm
ε-polylysine concentration at which L ≥ 0 was attained, S. aureus (S. aureus; [19]): 500 ppm
ε-polylysine concentration at which L ≥ 0 was attained, S. aureus (S. aureus; [20]): 500 ppm
ε-polylysine concentration at which L ≥ 0 was attained, S. aureus (S. aureus; [21]): 250 ppm
ε-polylysine concentration at which L ≥ 0 was attained, S. aureus (S. aureus; [22]): 500 ppm
ε-polylysine concentration at which L ≥ 0 was attained, S. aureus (S. aureus; [23]): 500 ppm
ε-polylysine concentration at which L ≥ 0 was attained, S. aureus (S. aureus; [24]): 500 ppm
ε-polylysine concentration at which L ≥ 0 was attained, S. aureus (S. aureus; [25]): 500 ppm
ε-polylysine concentration at which L ≥ 0 was attained, S. aureus (S. aureus; [26]): 500 ppm
ε-polylysine concentration at which L ≥ 0 was attained, S. aureus (S. aureus; [27]): 500 ppm
concentration of ϵ-polylysine aqueous solution at which bacteriostatic effect against S. aureus was attained (S. aureus; [28]): 500 ppm
concentration of ϵ-polylysine aqueous solution at which bacteriostatic effect against S. aureus was attained (S. aureus; [29]): 500 ppm
